Test results reported in PubChem BioAssay AID1259407 (Chemical Carcinogenesis Research Information System (CCRIS), 2018).
The source made the active and inactive calls. How the calls were made is not given here.

Tested on: CCRIS mutagenicity, Ames/micronucleus/aberration tests
Test: CCRIS mutagenicity studies
[1] = Test System: AMES SALMONELLA TYPHIMURIUM, Strain/Indicator: TA98, Metabolic Activation: NONE, Method: PREINCUBATION
[2] = Test System: AMES SALMONELLA TYPHIMURIUM, Strain/Indicator: TA98, Metabolic Activation: NONE, Method: STANDARD PLATE
[3] = Test System: AMES SALMONELLA TYPHIMURIUM, Strain/Indicator: TA98, Metabolic Activation: RAT, LIVER, S-9, AROCLOR 1254, Method: STANDARD PLATE
[4] = Test System: AMES SALMONELLA TYPHIMURIUM, Strain/Indicator: TA100, Metabolic Activation: NONE, Method: PREINCUBATION
[5] = Test System: AMES SALMONELLA TYPHIMURIUM, Strain/Indicator: TA100, Metabolic Activation: NONE, Method: STANDARD PLATE
[6] = Test System: AMES SALMONELLA TYPHIMURIUM, Strain/Indicator: TA100, Metabolic Activation: RAT, LIVER, S-9, AROCLOR 1254, Method: STANDARD PLATE
[7] = Test System: AMES SALMONELLA TYPHIMURIUM, Strain/Indicator: TA1535, Metabolic Activation: NONE, Method: PREINCUBATION
[8] = Test System: AMES SALMONELLA TYPHIMURIUM, Strain/Indicator: TA102, Metabolic Activation: NONE, Method: STANDARD PLATE
[9] = Test System: AMES SALMONELLA TYPHIMURIUM, Strain/Indicator: TA1535, Metabolic Activation: NONE, Method: STANDARD PLATE
[10] = Test System: AMES SALMONELLA TYPHIMURIUM, Strain/Indicator: TA1538, Metabolic Activation: RAT, LIVER, S-9, AROCLOR 1254, Method: STANDARD PLATE

SMILES: COc1c(C(C)(C)C)cc([N+](=O)[O-])c(C)c1[N+](=O)[O-]
- mutagenic call (Test System: AMES SALMONELLA TYPHIMURIUM, Strain/Indicator: TA98, Metabolic Activation: HAMSTER, LIVER, S-9, AROCLOR 1254 (10%), Method: PREINCUBATION): inactive; negative
- mutagenic call [1]: inactive; negative
- mutagenic call [2]: inactive; negative
- mutagenic call (Test System: AMES SALMONELLA TYPHIMURIUM, Strain/Indicator: TA98, Metabolic Activation: RAT, LIVER, AROCLOR 1254, Method: STANDARD PLATE): inactive; negative
- mutagenic call (Test System: AMES SALMONELLA TYPHIMURIUM, Strain/Indicator: TA98, Metabolic Activation: RAT, LIVER, S-9, AROCLOR 1254 (10%), Method: PREINCUBATION): inactive; negative
- mutagenic call (Test System: AMES SALMONELLA TYPHIMURIUM, Strain/Indicator: TA98, Metabolic Activation: RAT, LIVER, S-9, AROCLOR 1254, Method: PREINCUBATION): inactive; negative
- mutagenic call [3]: inactive; negative
- mutagenic call (Test System: AMES SALMONELLA TYPHIMURIUM, Strain/Indicator: TA100 (NR), Metabolic Activation: NONE, Method: STANDARD PLATE): inactive; negative
- mutagenic call (Test System: AMES SALMONELLA TYPHIMURIUM, Strain/Indicator: TA100(NR), Metabolic Activation: RAT LIVER S-9, AROCLOR 1254, Method: STANDARD PLATE): inactive; negative
- mutagenic call (Test System: AMES SALMONELLA TYPHIMURIUM, Strain/Indicator: TA100, Metabolic Activation: HAMSTER, LIVER, S-9, AROCLOR 1254 (10%), Method: PREINCUBATION): inactive; negative
- mutagenic call [4]: inactive; negative
- mutagenic call [5]: inactive; negative
- mutagenic call (Test System: AMES SALMONELLA TYPHIMURIUM, Strain/Indicator: TA100, Metabolic Activation: RAT LIVER S-9, AROCLOR 1254, Method: STANDARD PLATE): active; positive
- mutagenic call (Test System: AMES SALMONELLA TYPHIMURIUM, Strain/Indicator: TA100, Metabolic Activation: RAT, LIVER, S-9, AROCLOR 1254 (10%), Method: PREINCUBATION): inactive; negative
- mutagenic call (Test System: AMES SALMONELLA TYPHIMURIUM, Strain/Indicator: TA100, Metabolic Activation: RAT, LIVER, S-9, AROCLOR 1254, Method: PREINCUBATION): active; positive
- mutagenic call [6]: active; positive
- mutagenic call (Test System: AMES SALMONELLA TYPHIMURIUM, Strain/Indicator: TA1535, Metabolic Activation: HAMSTER, LIVER, S-9, AROCLOR 1254 (10%), Method: PREINCUBATION): inactive; negative
- mutagenic call [7]: inactive; negative
- mutagenic call (Test System: AMES SALMONELLA TYPHIMURIUM, Strain/Indicator: TA1535, Metabolic Activation: RAT, LIVER, S-9, AROCLOR 1254 (10%), Method: PREINCUBATION): inactive; negative
- mutagenic call (Test System: AMES SALMONELLA TYPHIMURIUM, Strain/Indicator: TA1537, Metabolic Activation: HAMSTER, LIVER, S-9, AROCLOR 1254 (10%), Method: PREINCUBATION): inactive; negative
- mutagenic call (Test System: AMES SALMONELLA TYPHIMURIUM, Strain/Indicator: TA1537, Metabolic Activation: NONE, Method: PREINCUBATION): inactive; negative
- mutagenic call (Test System: AMES SALMONELLA TYPHIMURIUM, Strain/Indicator: TA1537, Metabolic Activation: RAT, LIVER, S-9, AROCLOR 1254 (10%), Method: PREINCUBATION): inactive; negative

SMILES: CCCCOO
- mutagenic call [5]: inactive; negative
- mutagenic call [8]: active; positive

SMILES: O=[N+]([O-])/C=C/c1ccc([N+](=O)[O-])o1
- mutagenic call [1]: active; positive

SMILES: CC(C)(CO)[C@@H](O)C(=O)NCCCO
- mutagenic call [2]: inactive; negative
- mutagenic call [3]: inactive; negative
- mutagenic call [5]: inactive; negative
- mutagenic call [6]: inactive; negative
- mutagenic call [9]: inactive; negative
- mutagenic call (Test System: AMES SALMONELLA TYPHIMURIUM, Strain/Indicator: TA1535, Metabolic Activation: RAT, LIVER, S-9, AROCLOR 1254, Method: STANDARD PLATE): inactive; negative
- mutagenic call (Test System: AMES SALMONELLA TYPHIMURIUM, Strain/Indicator: TA1537, Metabolic Activation: NONE, Method: STANDARD PLATE): inactive; negative
- mutagenic call (Test System: AMES SALMONELLA TYPHIMURIUM, Strain/Indicator: TA1537, Metabolic Activation: RAT, LIVER, S-9, AROCLOR 1254, Method: STANDARD PLATE): inactive; negative
- mutagenic call (Test System: AMES SALMONELLA TYPHIMURIUM, Strain/Indicator: TA1538, Metabolic Activation: NONE, Method: STANDARD PLATE): inactive; negative
- mutagenic call [10]: inactive; negative
- mutagenic call (Test System: E. COLI, Strain/Indicator: WP2, Metabolic Activation: NONE, Method: STANDARD PLATE): inactive; negative
- mutagenic call (Test System: E. COLI, Strain/Indicator: WP2, Metabolic Activation: RAT, LIVER, S-9, AROCLOR 1254, Method: STANDARD PLATE): inactive; negative

SMILES: OC1C=Cc2cc3c(cc2C1O)-c1cccc2cccc-3c12 (stereo unspecified)
- mutagenic call [6]: active; positive

SMILES: CCCCCCC(O)CCCCCCCCCCC(=O)O (stereo unspecified)
- mutagenic call (Test System: AMES SALMONELLA TYPHIMURIUM, Strain/Indicator: TA97, Metabolic Activation: NONE, Method: STANDARD PLATE): inactive; negative
- mutagenic call (Test System: AMES SALMONELLA TYPHIMURIUM, Strain/Indicator: TA97, Metabolic Activation: S-9, Method: STANDARD PLATE): inactive; negative
- mutagenic call [2]: inactive; negative
- mutagenic call [5]: inactive; negative
- mutagenic call (Test System: AMES SALMONELLA TYPHIMURIUM, Strain/Indicator: TA100, Metabolic Activation: S-9, Method: STANDARD PLATE): inactive; negative
- mutagenic call [8]: inactive; negative
- mutagenic call (Test System: AMES SALMONELLA TYPHIMURIUM, Strain/Indicator: TA102, Metabolic Activation: S-9, Method: STANDARD PLATE): inactive; negative
- mutagenic call (Test System: E.COLI, Strain/Indicator: WP2 (PKM101), Metabolic Activation: NONE, Method: STANDARD PLATE): inactive; negative
- mutagenic call (Test System: E.COLI, Strain/Indicator: WP2 (PKM101), Metabolic Activation: S-9, Method: STANDARD PLATE): inactive; negative

SMILES: C[C@@H]1CC[C@@]2(OC1)O[C@H]1CC3[C@@H]4CC=C5C[C@@H](O[C@@H]6O[C@H](CO)[C@@H](O[C@@H]7O[C@@H](C)[C@H](O)[C@@H](O)[C@H]7O)[C@H](O)[C@H]6O[C@@H]6O[C@@H](C)[C@H](O)[C@@H](O)[C@H]6O)CC[C@]5(C)[C@H]4CC[C@]3(C)[C@H]1[C@@H]2C (stereo partly specified)
- mutagenic call [2]: inactive; negative
- mutagenic call (Test System: AMES SALMONELLA TYPHIMURIUM, Strain/Indicator: TA98, Metabolic Activation: RAT, LIVER, S-9, PHENOBARBITAL, Method: STANDARD PLATE): inactive; negative
- mutagenic call [5]: inactive; negative
- mutagenic call (Test System: AMES SALMONELLA TYPHIMURIUM, Strain/Indicator: TA100, Metabolic Activation: RAT, LIVER, S-9, PHENOBARBITAL, Method: STANDARD PLATE): inactive; negative

SMILES: Nc1nc(-c2cccnc2)cs1
- mutagenic call [10]: inactive; negative

SMILES: CC(C)N=C(NC(C)C)OCc1ccc([N+](=O)[O-])cc1
- mutagenic call [1]: active; positive
- mutagenic call (Test System: AMES SALMONELLA TYPHIMURIUM, Strain/Indicator: TA98, Metabolic Activation: RAT, LIVER, S-9, PCB, Method: PREINCUBATION): active; positive
- mutagenic call [4]: active; positive
- mutagenic call (Test System: AMES SALMONELLA TYPHIMURIUM, Strain/Indicator: TA100, Metabolic Activation: RAT, LIVER, S-9, PCB, Method: PREINCUBATION): active; positive

SMILES: COc1ccccc1CC1CO1 (stereo unspecified)
- mutagenic call [4]: active; positive
- mutagenic call [5]: active; positive
- mutagenic call [7]: active; positive
- mutagenic call [9]: active; positive

SMILES: CCOc1ccc(NC(=O)CC(C)O)cc1 (stereo unspecified)
- mutagenic call (Test System: AMES SALMONELLA TYPHIMURIUM, Strain/Indicator: TA100, Metabolic Activation: HAMSTER, LIVER, S-9, KANECHLOR 400, Method: PREINCUBATION): active; positive
- mutagenic call (Test System: AMES SALMONELLA TYPHIMURIUM, Strain/Indicator: TA100, Metabolic Activation: HAMSTER, LIVER, S-9, Method: PREINCUBATION): inactive; negative
- mutagenic call (Test System: AMES SALMONELLA TYPHIMURIUM, Strain/Indicator: TA100, Metabolic Activation: RAT, LIVER, S-9, KANECHLOR 400, Method: PREINCUBATION): inactive; negative
- mutagenic call (Test System: AMES SALMONELLA TYPHIMURIUM, Strain/Indicator: TA100, Metabolic Activation: RAT, LIVER, S-9, Method: PREINCUBATION): inactive; negative

SMILES: O[C@H]1C=Cc2cccnc2[C@@H]1O
- mutagenic call [5]: inactive; negative
- mutagenic call (Test System: AMES SALMONELLA TYPHIMURIUM, Strain/Indicator: TA100, Metabolic Activation: RAT, LIVER, S-9, AROCLOR 1254 (10 OR 20%), Method: STANDARD PLATE): inactive; negative
